Reference: patent publication US9682025B2, “Combination of active agents for oral administration for improving the quality of nails” (NUTRICOS TECHNOLOGIES, priority 2013, dated 2017)

Test system: metalloprotease 9 (MMP-9)
Test: Basal synthesis/release of MMP-9 by normal human epidermal keratinocytes (ELISA of culture supernatants)
Format: cell-based
Settings: NHEK; for % of basal synthesis/release of MMP-9 by keratinocytes: 24 hours incubation; for effect on the basal level of synthesis and/or release of MMP-9 (in words): doses of Table I
Protocol: This test was performed on cells cultured at 37° C., 5% CO2. The culture medium is Keratinocyte-SFM supplemented with epidermal growth factor (EGF) at 0.25 ng/ml, pituitary extract (PE) at 25 μg/ml and gentamicin at 25 μg/ml. […] At the end of this incubation, the culture supernatants were collected and stored so as to assay the amounts of MMP-9 secreted using the ELISA R&D Systems assay kit of reference DY911. The inter-group comparisons were performed using the unpaired bilateral Student's t-test.

Compound | % of basal synthesis/release of MMP-9 by keratinocytes (petroselinic acid 0.1 μM) | effect on the basal level of synthesis and/or release of MMP-9 (in words) | % of basal synthesis/release of MMP-9 by keratinocytes (taurine 1.2 μg/ml) | % of basal synthesis/release of MMP-9 by keratinocytes (cysteine 1.2 μg/ml)
CCCCCCCCCCC/C=C\CCCCC(=O)O [Petroselinic acid, C18 delta-6-cis-octadecenoic acid] | −12% | no inhibitory activity |  | 
NCCS(=O)(=O)O [Taurine] |  | reverse and moderate tendency | +11% | 
N[C@@H](CS)C(=O)O [Cysteine] |  |  |  | −12%
